Source: patent publication US4038480A, “6-Aminocarbonyl purine 3',5'-cyclic nucleotides” (ICN Pharmaceuticals, Inc., priority 1973, dated 1977)
Structures can show the parent of a compound that is named as a salt.

What was measured:
[1] = test system: bovine brain C-AMP dependent kinase; conditions: relative to C-AMP; K. Muneyama et al; cited from earlier work
[2] = test system: rabbit kidney high Km C-AMP phosphodiesterase; experiment: Vulnerability to degradation (hydrolysis) by high Km C-AMP phosphodiesterase; format: biochemical; conditions: for resistance to hydrolysis compared with C-AMP: rabbit kidney high Km phosphodiesterase
Text: In fact, hydrolysis to any appreciable extent could be detected only in the case of compound 8 (hydrolysis at a rate only 8% that of C-AMP).

[3] = target: beef heart cAMP phosphodiesterase; experiment: Inhibition of beef heart cAMP phosphodiesterase; format: biochemical; conditions: read-out: I50, Beef Heart
Text: (§1) The results appear in Table I below.

[4] = target: rabbit lung cAMP phosphodiesterase; experiment: Inhibition of rabbit lung cAMP phosphodiesterase; format: biochemical; conditions: read-out: I50, Rabbit Lung
Text: as §1

[5] = test system: lipolysis; experiment: Activation of lipolysis
[6] = test system: steroidogenisis; experiment: Activation of steroidogenesis
[7] = Lowering of blood pressure; conditions: in vivo
[8] = target: bovine brain C-AMP dependent kinase; experiment: Activation of C-AMP dependent protein kinase; format: biochemical; conditions: for kinase activation compared with C-AMP: bovine brain kinase, comparison in words
Method: Preferred carbamoyl compounds prepared as in the preceding examples were assayed for ability to activate protein kinase by the procedure described in K. Muneyama et al, Biochem. 10, 2390 (1971), using bovine brain C-AMP dependent kinase purified according to Kuo & Greengard, in Proc. Nat. Acad. Sci. U.S.A. 64, 1349 (1969). […] K. Muneyama et al, supra.

[9] = Inotropic action (cardiac output, heart rate); format: in vivo; conditions: inotropic agent
[10] = test system: adenyl cyclase; experiment: Inhibition of adenyl cyclase; format: biochemical

SMILES	resistance to hydrolysis compared with C-AMP [2]	IC50 [3]	IC50 [4]	activation of lipolysis, concentration compared with C-AMP [5]	activation of steroidogenesis, concentration compared with C-AMP [6]	lowering of blood pressure [7]	also measured
Nc1ncnc2c1nc(S)n2[C@@H]1O[C@@H]2COP(=O)(O)O[C@H]2[C@H]1O [8-thio derivative of C-AMP]	–	–	–	–	–	–	Ka' (highest value previously reported in the literature) [1]: 3.77
CNC(=O)Nc1ncnc2c1ncn2[C@@H]1O[C@@H]2COP(=O)(O)O[C@H]2[C@H]1OC(=O)NC [Compound 2, N^6, 2'-O-bis-(N-Methylcarbamoyl)adenosine 3',5'-cyclic phosphate sodium salt]	more resistant to hydrolysis than C-AMP	–	–	–	–	–	–
CCCNC(=O)Nc1ncnc2c1ncn2[C@@H]1O[C@@H]2COP(=O)(O)O[C@H]2[C@H]1OC(=O)NCCC [Compound 3, N^6, 2'-O-bis-(N-Propylcarbamoyl)adenosine 3', 5'-cyclic phosphate sodium salt]	more resistant to hydrolysis than C-AMP	–	–	–	–	–	–
O=C(Nc1ccccc1)Nc1ncnc2c1ncn2[C@@H]1O[C@@H]2COP(=O)(O)O[C@H]2[C@H]1OC(=O)Nc1ccccc1 [Compound 4, N^6, 2'-O-bis-(N-Phenylcarbamoyl)adenosine 3',5'-cyclic phosphate sodium salt]	more resistant to hydrolysis than C-AMP	93 µM	190 µM	–	–	–	–
CNC(=O)Nc1ncnc2c1ncn2[C@@H]1O[C@@H]2COP(=O)(O)O[C@H]2[C@H]1O [Compound 5, N^6-(N-Methylcarbamoyl) adenosine 3',5'-cyclic phosphate]	more resistant to hydrolysis than C-AMP	–	–	at concentrations substantially lower than C-AMP	at concentrations substantially lower than C-AMP	act to lower blood pressure	–
CCCNC(=O)Nc1ncnc2c1ncn2[C@@H]1O[C@@H]2COP(=O)(O)O[C@H]2[C@H]1O [Compound 6, N^6-(N-Propylcarbamoyl) adenosine 3',5'-cyclic phosphate]	more resistant to hydrolysis than C-AMP	–	–	at concentrations substantially lower than C-AMP	at concentrations substantially lower than C-AMP	act to lower blood pressure	kinase activation compared with C-AMP [8]: superior in kinase activation to C-AMP itself
O=C(Nc1ccccc1)Nc1ncnc2c1ncn2[C@@H]1O[C@@H]2COP(=O)(O)O[C@H]2[C@H]1O [Compound 7, N^6-(N-Phenylcarbamoyl)adenosine 3',5'-cyclic phosphate]	more resistant to hydrolysis than C-AMP	22 µM	160 µM	at concentrations substantially lower than C-AMP	at concentrations substantially lower than C-AMP	–	effect on heart rate [9]: without deleteriously affecting heart rate; persistence of inotropic action [9]: persistent in action; increase of cardiac output compared with aminophylline ([9]; compared with aminophylline): the equal of aminophylline in increasing cardiac output; Ka' (Ka for C-AMP/Ka for test compound) ([8]; Ka from Lineweaver-Burk plot, relative to C-AMP): 4.9; kinase activation compared with C-AMP [8]: superior in kinase activation to C-AMP itself; activation of protein kinase relative to C-AMP (times better) ([8]; bovine brain protein kinase, relative to C-AMP): approximately five; inhibition of adenyl cyclase [10]: inhibit adenyl cyclase
CCOC(=O)Nc1ncnc2c1ncn2[C@@H]1O[C@@H]2COP(=O)(O)O[C@H]2[C@H]1O [Compound 8, N^6-(Ethoxycarbonyl)adenosine 3'5'-cyclic phosphate]	more resistant to hydrolysis than C-AMP	130 µM	210 µM	at concentrations substantially lower than C-AMP	at concentrations substantially lower than C-AMP	act to lower blood pressure	rate of hydrolysis relative to C-AMP ([2]; rate as % that of C-AMP): 8%
CNC(=O)Nc1ncnc2c1nc(Br)n2[C@@H]1O[C@@H]2COP(=O)(O)O[C@H]2[C@H]1OC(=O)NC [Compound 11, 8-Bromo-N^6,2'-O-bis-(N-methylcarbamoyl)adenosine 3',5'-cyclic phosphate]	more resistant to hydrolysis than C-AMP	260 µM	130 µM	–	–	–	–
O=C(Nc1ccccc1)Nc1ncnc2c1nc(SCc1ccccc1)n2[C@@H]1O[C@@H]2COP(=O)(O)O[C@H]2[C@H]1OC(=O)Nc1ccccc1 [Compound 12, 8-Benzylthio-N^6,2'-O-bis-(N-phenylcarbamoyl) adenosine 3',5'-cyclic phosphate sodium salt]	more resistant to hydrolysis than C-AMP	22 µM	10 µM	–	–	–	–
O=C(Nc1ccccc1)Nc1ncnc2c1nc(SCc1ccccc1)n2[C@@H]1O[C@@H]2COP(=O)(O)O[C@H]2[C@H]1O [Compound 15, 8-Benzylthio-N^6-(N-phenylcarbamoyl)adenosine 3',5'-cyclic phosphate]	more resistant to hydrolysis than C-AMP	14 µM	21 µM	–	–	act to lower blood pressure	kinase activation compared with C-AMP [8]: superior in kinase activation to C-AMP itself; inhibition of adenyl cyclase [10]: inhibit adenyl cyclase
CNC(=O)Nc1ncnc2c1nc(S)n2[C@@H]1O[C@@H]2COP(=O)(O)O[C@H]2[C@H]1OC(=O)NC [Compound 16, N^6,2'-O-bis-(N-Methylcarbamoyl)-8-mercaptoadenosine 3',5'-cyclic phosphate sodium salt]	more resistant to hydrolysis than C-AMP	–	–	–	–	–	–
Cn1c(=O)c2[nH]cnc2n(C)c1=O [Theophylline, reference compound]	–	130 µM	230 µM	–	–	–	–
